Several values for one entry are separate records, joined by “and”; a condition that tells them apart may be missing. Equal entries are not always repeated. Where two headings read alike, the source gives them in different places.
Experiments:
[1] = Plasma pharmacokinetics after an oral dose of Example 2 in SD rats; assay type: in vivo, Sprague Dawley rats; conditions: for bioavailability: oral
Protocol: An oral dose of Example 2 was formulated in a sterile solution of 50% water, 37.5% PEG 300, and 12.5% DMSO at 1.0 mg/mL. The dosing group consisted of three fasted male Sprague Dawley rats. At dosing, the animals weighed between 0.26 and 0.27 kg. For the oral dosing group, the formulated dose was administered via oral gavage at 5.0 mL/kg for a dose of 5.0 mg/kg. Non-compartmental pharmacokinetic analysis was performed on the plasma concentration-time data.

[2] = Plasma pharmacokinetics of Example 68 after IV infusion or PO dose in SD rats; assay type: in vivo
[3] = Example 68 in plasma, PO dose of Example 2 5 mg/kg, individual rats
[4] = male, Sprague Dawley, rat, plasma, po, 5 mg/kg, Example 68 in plasma, PO dose of Example 2 5 mg/kg, individual rats
[5] = male, Sprague Dawley, rat, plasma, po, 5 mg/kg, Example 68 in plasma, PO dose of Example 2 5 mg/kg, mean n=3
[6] = 30-minute IV infusion 1 mg/kg, individual rats
[7] = 30-minute IV infusion 1 mg/kg, mean n=3
[8] = PO dose 5 mg/kg, individual rats
[9] = SD, rat, plasma, po, 5 mg/kg, PO dose 5 mg/kg, mean n=3
[10] = Sprague-Dawley (SD), rat, plasma, iv, 1 mg/kg, 30-minute IV infusion 1 mg/kg, individual rats
[11] = Sprague-Dawley (SD), rat, plasma, iv, 1 mg/kg, 30-minute IV infusion 1 mg/kg, mean n=3

## NC(=O)c1ccc(-c2ccc(-c3nn[nH]c3C(=O)O)cc2)cc1 [Example 68, 4-(4carbamoyl-[1,1biphenyl]-4-yl)-1H-1,2,3-triazole-5-carboxylic acid]
[1]; Example 68 after PO Example 2 5 mg/kg, based on IV exposure of Example 68 at 1.0 mg/kg, individual rats
  F (bioavailability): 20.2% and 17.4%
[1]; [3]
  AUC0-24 h: 3.36 µM·h and 2.93 µM·h
  AUCinf: 3.45 µM·h and 2.98 µM·h
  Cmax: 2220 nM and 2450 nM
  Tmax: 15 min
[1]; Example 68 in plasma, PO dose of Example 2 5 mg/kg, mean n=3
  AUCinf: 3.25 µM·h
[1]; male, Sprague Dawley, rat, plasma, 5 mg/kg, Example 68 after PO Example 2 5 mg/kg, based on IV exposure of Example 68 at 1.0 mg/kg, individual rats, read-out: F (bioavailability)
  bioavailability: 19.4%
[1]; male, Sprague Dawley, rat, plasma, 5 mg/kg, Example 68 after PO Example 2 5 mg/kg, based on IV exposure of Example 68 at 1.0 mg/kg, mean n=3, read-out: F (bioavailability)
  bioavailability: 19 ± 1.4%
[1]; [4]
  AUC(0-inf): 3.32 µM·h
  Cmax: 2120 nM
[1]; male, Sprague Dawley, rat, plasma, po, 5 mg/kg, Example 68 in plasma, PO dose of Example 2 5 mg/kg, individual rats, read-out: AUC0-24 h
  AUC(0-t): 3.15 µM·h
[1]; male, Sprague Dawley, rat, plasma, po, 5 mg/kg, Example 68 in plasma, PO dose of Example 2 5 mg/kg, individual rats, read-out: Tmax
  Tmax: 30 min
[1]; [5]
  AUC(0-inf): 3.25 ± 0.242 µM·h
  Cmax: 2270 ± 171 nM
[1]; male, Sprague Dawley, rat, plasma, po, 5 mg/kg, Example 68 in plasma, PO dose of Example 2 5 mg/kg, mean n=3, read-out: AUC0-24 h
  AUC(0-t): 3.14 µM·h
[1]; male, Sprague Dawley, rat, plasma, po, 5 mg/kg, Example 68 in plasma, PO dose of Example 2 5 mg/kg, mean n=3, read-out: Tmax
  Tmax: 25.2 min
[2]; [6]
  AUCinf: 3.11 µM·h and 3.46 µM·h
  AUClast: 3.09 µM·h and 3.45 µM·h
  CL (apparent systemic clearance): 17.3 mL/min/kg and 15.5 mL/min/kg
  Cmax: 5100 nM and 5350 nM
  MRT (mean residence time): 29.4 min and 26.4 min
  Vss (volume of distribution): 0.51 L/kg
  t1/2 (terminal): 64.8 min and 57.6 min
[2]; [7]
  CL (apparent systemic clearance): 15.8 mL/min/kg
  t1/2 (terminal): 61.2 min
[2]; [8]
  AUCinf: 0.383 µM·h and 0.479 µM·h
  AUClast: 0.334 µM·h and 0.396 µM·h
  Cmax: 90.4 nM and 65 nM and 182 nM
  F (oral bioavailability): 1.9%
  Tmax: 0.25 hr (2×) and 2.00 hr
[2]; SD, rat, plasma, po, 5 mg/kg, PO dose 5 mg/kg, individual rats
  AUC(0-inf): 0.485 µM·h
[2]; [9]
  AUC(0-inf): 0.449 µM·h
  Cmax: 113 nM
[2]; [10]
  AUC(0-inf): 3.69 µM·h
  AUC(0-t): 3.68 µM·h
  Cmax: 4940 nM
[2]; Sprague-Dawley (SD), rat, plasma, iv, 1 mg/kg, 30-minute IV infusion 1 mg/kg, individual rats, read-out: CL (apparent systemic clearance) (converted)
  clearance: 14.5 mL/min/kg
[2]; Sprague-Dawley (SD), rat, plasma, iv, 1 mg/kg, 30-minute IV infusion 1 mg/kg, individual rats, read-out: MRT (mean residence time)
  MRT: 28.2 min
[2]; Sprague-Dawley (SD), rat, plasma, iv, 1 mg/kg, 30-minute IV infusion 1 mg/kg, individual rats, read-out: Vss (volume of distribution)
  Vd: 0.41 L/kg
[2]; Sprague-Dawley (SD), rat, plasma, iv, 1 mg/kg, 30-minute IV infusion 1 mg/kg, individual rats, read-out: t1/2 (terminal) (converted)
  half-life: 60.6 min
[2]; [11]
  AUC(0-inf): 3.42 µM·h
  AUC(0-t): 3.4 µM·h
  Cmax: 5130 nM
[2]; Sprague-Dawley (SD), rat, plasma, iv, 1 mg/kg, 30-minute IV infusion 1 mg/kg, mean n=3, read-out: CL (apparent systemic clearance) (converted)
  clearance: 15.8 mL/min/kg
[2]; Sprague-Dawley (SD), rat, plasma, iv, 1 mg/kg, 30-minute IV infusion 1 mg/kg, mean n=3, read-out: MRT (mean residence time)
  MRT: 28.2 ± 1.2 min
[2]; Sprague-Dawley (SD), rat, plasma, iv, 1 mg/kg, 30-minute IV infusion 1 mg/kg, mean n=3, read-out: Vss (volume of distribution)
  Vd: 0.44 ± 0.06 L/kg
[2]; Sprague-Dawley (SD), rat, plasma, iv, 1 mg/kg, 30-minute IV infusion 1 mg/kg, mean n=3, read-out: t1/2 (terminal) (converted)
  half-life: 61.2 ± 3.6 min
[2]; Sprague-Dawley (SD), rat, plasma, po, 5 mg/kg, PO dose 5 mg/kg, individual rats
  AUC(0-t): 0.429 µM·h
[2]; Sprague-Dawley (SD), rat, plasma, po, 5 mg/kg, PO dose 5 mg/kg, individual rats, read-out: F (oral bioavailability)
  bioavailability: 2.5%
[2]; Sprague-Dawley (SD), rat, plasma, po, 5 mg/kg, PO dose 5 mg/kg, mean n=3
  AUC(0-t): 0.386 µM·h
[2]; Sprague-Dawley (SD), rat, plasma, po, 5 mg/kg, PO dose 5 mg/kg, mean n=3, read-out: F (oral bioavailability)
  bioavailability: 2.3%
[2]; Sprague-Dawley (SD), rat, plasma, po, 5 mg/kg, PO dose 5 mg/kg, mean n=3, read-out: Tmax
  Tmax: 49.8 min

Source: patent US20240091200A1 (Lilac Therapeutics, Inc., priority 2019, published 2024)
